Source: US9902710B2, “Substituted 6, 7-dialkoxy-3-isoquinoline derivatives as inhibitors of phosphodiesterase 10 (PDE 10A)” (Allergan, Inc., priority 2013, dated 2018)
Counter-ions that a name gives are not always drawn.

Molecular target: PDE10A
Experiment: Diaxonhit phosphodiesterase assay (TR-FRET, LANCE cAMP kit), PDE10A
Assay type: biochemical
Description: Diaxonhit Phosphodiesterase Assay (PDE10A and PDE4D3)
The PDE assay is based on the homogenous time-resolved fluorescence resonance energy transfer (TR-FRET) technology (LANCE® from Perkin Elmer). […] When there is PDE activity, resulting in the degradation of the cyclic nucleotide, the complex is not formed and a decrease in signal is observed.
The phosphodiesterase assay was developed using the LANCE® cAMP kit (PerkinElmer). The assay buffer contained HBSS with 5 mM HEPES, 0.1% BSA, and 1.5 mM MgCl2, pH 7.4. […] Chemical compounds were dissolved in DMSO (final concentration 2% (v/v)).
In a 384-well plate, 2 μL of the inhibitor and 3 μL PDE were added to the well, followed by the addition of 5 μl substrate biotinylated cAMP (1:5). After 60 min incubation at room temperature, 10 μL of assay detection mixture was added to the assay plate. After 1 h at room temperature, the signal was measured on EnVision™ (PerkinElmer).

First: CCCc1ncc(Cc2ccc3nc(C)ccc3c2)c2cc(OC)c(OC)cc12 [Compound 57, 6-((6,7-dimethoxy-1-propylisoquinolin-4-yl)methyl)-2-methylquinoline dihydrochloride]
Second: COc1cc2c(Cc3ccc4nc(C)ccc4c3)cnc(C)c2cc1OC [Compound 105, 6-((6,7-dimethoxy-1-methylisoquinolin-4-yl)methyl)-2-methylquinoline dihydrochloride]
The IC50 of the first is 4.7-fold higher: 20 nM for the first, 4.3 nM for the second.

COc1cc2cnc(C)c(Cc3cnc4ccccc4c3)c2cc1OC [Compound 43, 3-((6,7-dimethoxy-3-methylisoquinolin-4-yl)methyl)quinoline dihydrocloride] and COc1cc2c(Cc3cnc4ccccc4c3)cnc(C)c2cc1OC [Compound 26, 3-((6,7-dimethoxy-1-methylisoquinolin-4-yl)methyl)quinoline dihydrochloride] are within 1.5-fold of each other in IC50: 39 nM for the first, 49 nM for the second.

Compared with COc1cc2cncc(Cc3ccc4sccc4c3)c2cc1OC [Compound 3, 4-(benzo[b]thiophen-5-ylmethyl)-6,7-dimethoxyisoquinoline hydrochloride], COc1cc2cncc(Cc3ccc4cccc(OC)c4n3)c2cc1OC [Compound 21, 2-((6,7-dimethoxyisoquinolin-4-yl)methyl)-8-methoxyquinoline dihydrochloride] is 2.2-fold lower in IC50: 100 nM for the first, 46 nM for the second.

Compared with CCCc1ncc(Cc2cc3cc(OC)ccc3nc2O)c2cc(OC)c(OC)cc12 [Compound 49, 3-((6,7-dimethoxy-1-propylisoquinolin-4-yl)methyl)-6-methoxyquinolin-2-ol dihydrochloride], CCCc1ncc(Cc2cc3cc(C)ccc3nc2O)c2cc(OC)c(OC)cc12 [Compound 54, 3-((6,7-dimethoxy-1-propylisoquinolin-4-yl)methyl)-6-methylquinolin-2-ol dihydrochloride] is 2.4-fold higher in IC50: 63 nM for the first, 151 nM for the second. The first is the more potent here.

Going from CCOC(=O)COc1cccc2ccc(Cc3cnc(CC)c4cc(OC)c(OC)cc34)nc12 [Compound 128, ethyl 2-((2-((1-ethyl-6,7-dimethoxyisoquinolin-4-yl)methyl)quinolin-8-yl)oxy)acetate] to CCOC(=O)C(=O)Nc1cccc2ccc(Cc3cnc(CC)c4cc(OC)c(OC)cc34)nc12 [Compound 92, ethyl 2-((2-((1-ethyl-6,7-dimethoxyisoquinolin-4-yl)methyl)quinolin-8-yl)amino)-2-oxoacetate], the IC50 rises from 59 nM to 495 nM (8.4-fold).

Going from CCCc1ncc(Cc2cnc3ccc(OP(=O)(O)O)cc3c2)c2cc(OC)c(OC)cc12 [Compound 171, sodium 3-((6,7-dimethoxy-1-propylisoquinolin-4-yl)methyl)quinolin-6-yl phosphate] to CCCc1ncc(Cc2cnc3ccc(OCC(N)=O)cc3c2)c2cc(OC)c(OC)cc12 [Compound 144, 2-((3-((6,7-dimethoxy-1-propylisoquinolin-4-yl)methyl)quinolin-6-yl)oxy)acetamide], the IC50 falls from 62 nM to 6.5 nM (9.5-fold).

Compared with COc1cc2cncc(Cc3cnc4ccc(O)c(C(F)(F)F)c4c3)c2cc1OC [Compound 161, 3-((6,7-dimethoxyisoquinolin-4-yl)methyl)-5-(trifluoromethyl)quinolin-6-ol], CCNc1nc2ccc(OC)cc2cc1Cc1cncc2cc(OC)c(OC)cc12 [Compound 113, 3-((6,7-dimethoxyisoquinolin-4-yl)methyl)-N-ethyl-6-methoxyquinolin-2-amine dihydrochloride] is 5.3-fold higher in IC50: 6 nM for the first, 32 nM for the second.

Going from CCCc1ncc(Cc2ccc3cccc(OCC(=O)NC4CC4)c3n2)c2cc(OC)c(OC)cc12 [Compound 126, N-cyclopropyl-2-((2-((6,7-dimethoxy-1-propylisoquinolin-4-yl)methyl)quinolin-8-yl)oxy)acetamide] to CCc1ncc(Cc2ccc3cccc(O)c3n2)c2cc(OC)c(OC)cc12 [Compound 83, 2-((1-ethyl-6,7-dimethoxyisoquinolin-4-yl)methyl)quinolin-8-ol], the IC50 falls from 71 nM to 11 nM (6.5-fold).

COc1cc2c(Cc3ccc4cccc(N)c4n3)cnc(C)c2cc1OC [Compound 152, 2-((6,7-dimethoxy-1-methylisoquinolin-4-yl)methyl)quinolin-8-amine] and CCc1ncc(Cc2ccc3cccc(CNS(N)(=O)=O)c3n2)c2cc(OC)c(OC)cc12 [Compound 94, N-((2-((1-ethyl-6,7-dimethoxyisoquinolin-4-yl)methyl)quinolin-8-yl)methyl)sulfamide] are the same in IC50: 13 nM for the first, 13 nM for the second.

CCCc1ncc(Cc2cc3cc(OC)ccc3nc2NC)c2cc(OC)c(OC)cc12 [Compound 129, 3-((6,7-dimethoxy-1-propylisoquinolin-4-yl)methyl)-6-methoxy-N-methylquinolin-2-amine] and CCCc1ncc(Cc2cc3cc(OC)ccc3nc2NCCNC(C)=O)c2cc(OC)c(OC)cc12 [Compound 76, N-(2-((3-((6,7-dimethoxy-1-propylisoquinolin-4-yl)methyl)-6-methoxyquinolin-2-yl)amino)ethyl)acetamide dihydrochloride] are within 1.5-fold of each other in IC50: 9.5 nM for the first, 11 nM for the second.

COC(=O)c1ccc(-c2nc3cc(Cc4cncc5cc(OC)c(OC)cc45)ccc3o2)cc1 [Compound 115, methyl 4-(5-((6,7-dimethoxyisoquinolin-4-yl)methyl)benzo[d]oxazol-2-yl)benzoate] and COc1cc2cncc(Cc3ccc4cccc(OCCO)c4n3)c2cc1OC [Compound 42, 2-((2-((6,7-dimethoxyisoquinolin-4-yl)methyl)quinolin-8-yl)oxy)ethanol dihydrochloride] are within 1.5-fold of each other in IC50: 61 nM for the first, 42 nM for the second.

Compared with CCc1ncc(Cc2cnc3ccc(N(C)S(C)(=O)=O)cc3c2)c2cc(OC)c(OC)cc12 [Compound 101, N-(3-((1-ethyl-6,7-dimethoxyisoquinolin-4-yl)methyl)quinolin-6-yl)-N-methylmethanesulfonamide], CCc1ncc(Cc2cnc3ccc(NC(=O)C(N)=O)cc3c2)c2cc(OC)c(OC)cc12 [Compound 98, N^1-(3-((1-ethyl-6,7-dimethoxyisoquinolin-4-yl)methyl)quinolin-6-yl)oxalamide] is 12-fold lower in IC50: 43 nM for the first, 3.5 nM for the second.

Work on CCCc1ncc(Cc2ccc3oc(=O)n(CC(N)=O)c3c2)c2cc(OC)c(OC)cc12 [Compound 148, 2-(5-((6,7-dimethoxy-1-propylisoquinolin-4-yl)methyl)-2-oxobenzo[d]oxazol-3(2H)-yl)acetamide] yielded an IC50 of 87 nM.
